The subject of one test is COLO-679 (Melanoma). Description: Bliss excess, mean over the matrix (fraction); higher = more synergy. An outline of the steps: (§1)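 Bliss excess equals the observed combination effect minus the expected value EA + EB − EA·EB, where EA and EB are the effects of each agent alone. Combination Emax is the second-highest inhibition within the matrix. Inhibition was scaled from CellTiter-Glo 2.0 luminescence, with 0 set by vehicle wells and 1 by blank wells, after 72 hours of two-drug dosing of cells plated in 1536-well plates.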

Test [1] has as its system Ca-Ski (Cervical Carcinoma). The description is as above. An outline of the steps:
as §1

Test [2] relates to OACM5-1 (Esophageal Adenocarcinoma). Description: combination Emax (second highest fraction inhibited in the dose matrix, 72 h); higher = more inhibition; extreme values may be limits of the assay. An outline of the steps: as §1
Test [3] concerns ME-180 (Cervical Carcinoma). The test is described as above. An outline of the steps:
as §1

The test system of test [4] is EJM (Plasma Cell Myeloma). The description is as above. The essentials:
as §1

Test [5] deals with DU-145 (Prostate Carcinoma). Described as above. An outline of the steps:
as §1

The subject of test [6] is NCI-H1092 (Small Cell Lung Carcinoma). The description is as above. An outline of the steps: as §1
Test [7] deals with NCI-H522 (Lung Adenocarcinoma). Described as above. An outline of the steps: as §1
Test [8] has as its system HCC2998 (Colorectal Carcinoma). The description is as above. The essentials:
as §1

The test system of test [9] is NCI-H650 (Lung Adenocarcinoma). The description is as above. An outline of the steps:
as §1

For test [10], the system named is A4-Fuk (B-Lymphoblastic Leukemia). Described as above. An outline of the steps:
as §1

Test [11] has as its system Ca-Ski (Cervical Carcinoma). The test is described as above. The essentials: as §1
Test [12] concerns KOPN-8 (B-Lymphoblastic Leukemia). Described as above. An outline of the steps:
as §1

The test system of a further test is SK-N-AS (Neuroblastoma). Described as above. An outline of the steps:
as §1

Test [13] deals with NCI-H2122 (Lung Adenocarcinoma). Described as above. An outline of the steps: as §1
Test [14] relates to MV-4-11 (Acute Myeloid Leukemia). The test is described as above. The essentials:
as §1

The subject of test [15] is SW872 (Other Solid Carcinomas). The test is described as above. The essentials:
as §1

The test system of test [16] is ML-2 (Acute Myeloid Leukemia). Described as above. An outline of the steps: as §1
The test system of test [17] is ALL-SIL (T-Lymphoblastic Leukemia). The description is as above. The essentials: as §1
Test [18] concerns CADO-ES1 (Ewing's Sarcoma). The test is described as above. An outline of the steps: as §1

As to `CC1(C)CCC(CN2CCN(c3ccc(C(=O)NS(=O)(=O)c4ccc(NCC5CCOCC5)c([N+](=O)[O-])c4)c(Oc4cnc5[nH]ccc5c4)c3)CC2)=C(c2ccc(Cl)cc2)C1` [Venetoclax] + CN(C)CCCOc1ccc(-c2ccc3ncc4c(c3c2)n(C2CCOCC2)c(=O)n4C)cn1 [AZD0156] (first compound max 1 µM, 7x7, partner max 1 µM), the Bliss excess is -0.0328 in the test on COLO-679 (Melanoma) and 0.0221 in [1]. Besides, the “combination Emax” value stood at 0.262 in test [2]; 0.211 in test [3]; 0.159 in [4]; 0.0977 in test [5]; 0.252 in [6]; 0.141 in [7]. Also, the “combination Emax” value in [8] worked out at 0.105; in test [9], 0.0987; in [10] it was 0.659; in test [11], 0.369; in [12], 0.813; in the test on SK-N-AS (Neuroblastoma) it was 0.17. Moreover, the “combination Emax” value in [13] came out at 0.212; in [14] it was 1; in test [15], 0.172; in test [16], 0.822; in test [17], 0.628; in test [18], 0.692.

`CC1(C)CCC(CN2CCN(c3ccc(C(=O)NS(=O)(=O)c4ccc(NCC5CCOCC5)c([N+](=O)[O-])c4)c(Oc4cnc5[nH]ccc5c4)c3)CC2)=C(c2ccc(Cl)cc2)C1` [Venetoclax] + COc1cc(Nc2ncc3c(n2)-c2ccc(Cl)cc2C(c2c(F)cccc2OC)=NC3)ccc1C(=O)O [Alisertib] (first compound max 1 µM, 7x7, partner max 10 µM): the Bliss excess with COLO-679 (Melanoma) stood at 0.0194; in [1] it was 0.0128. Further, the “combination Emax” value came out at 0.663 in test [2]; 0.603 in test [3]; 0.146 in test [4]; 0.268 in test [5]; 0.684 in test [6]; 0.277 in test [7]. Besides, the “combination Emax” value was determined as 0.225 in [8]; 0.319 in test [9]; 0.822 in test [10]; 0.64 in test [11]; 1 in test [12]; 0.818 with SK-N-AS (Neuroblastoma). Besides, the “combination Emax” value in [13] was 0.939; in test [14], 1; in [15], 0.265; in [16], 0.988; in test [17], 1; in test [18], 0.957.

Regarding `CC1(C)CCC(CN2CCN(c3ccc(C(=O)NS(=O)(=O)c4ccc(NCC5CCOCC5)c([N+](=O)[O-])c4)c(Oc4cnc5[nH]ccc5c4)c3)CC2)=C(c2ccc(Cl)cc2)C1` [Venetoclax] + C[C@@H]1COCCN1C2=NC(=NC(=C2)C3(CC3)[S@](=N)(=O)C)C4=C5C=CNC5=NC=C4 [AZD6738] (first compound max 1 µM, 7x7, partner max 10 µM), the Bliss excess in the test on COLO-679 (Melanoma) was -0.0242; in [1] it was -0.006. Moreover, the “combination Emax” value in [2] stood at 0.678; in [3] it was 0.571; in test [4] it was 0.869; in [5], 0.537; in test [6], 0.458; in test [7] it was 0.161. For the same compound, the “combination Emax” value in [8] was 0.779; in test [9], 0.276; in test [10] it was 0.775; in test [11], 0.581; in [12], 1; in the test with SK-N-AS (Neuroblastoma) it was 0.896. Also, the “combination Emax” value in test [13] came to 0.947; in [14] it was 1; in test [15], 0.459; in [16], 1; in test [17], 1; in test [18] it was 0.952.

`CC1(C)CCC(CN2CCN(c3ccc(C(=O)NS(=O)(=O)c4ccc(NCC5CCOCC5)c([N+](=O)[O-])c4)c(Oc4cnc5[nH]ccc5c4)c3)CC2)=C(c2ccc(Cl)cc2)C1` [Venetoclax] + C[C@@H](Nc1cc(F)cc(F)c1)c1cc(C(=O)N(C)C)cc2c(=O)cc(N3CCOCC3)oc12 [AZD8186] (first compound max 1 µM, 7x7, partner max 3 µM): the Bliss excess with COLO-679 (Melanoma) was 0.0001; in test [1] it was -0.0259. Besides, the “combination Emax” value in test [2] amounted to 0.495; in test [3] it was 0.129; in test [4], 0.278; in test [5], 0.153; in test [6] it was 0.384; in test [7], 0.0652. The “combination Emax” value in [8] turned out to be 0.145; in [9] it was 0.142; in [10], 0.655; in [11], 0.114; in test [12], 0.829; in the test on SK-N-AS (Neuroblastoma) it was 0.0826. The “combination Emax” value in [13] was 0.174; in test [14] it was 1; in [15], 0.167; in test [16], 0.983; in test [17], 0.637; in test [18] it was 0.625.

With `CC1(C)CCC(CN2CCN(c3ccc(C(=O)NS(=O)(=O)c4ccc(NCC5CCOCC5)c([N+](=O)[O-])c4)c(Oc4cnc5[nH]ccc5c4)c3)CC2)=C(c2ccc(Cl)cc2)C1` [Venetoclax] + Cc1cc2ncnn2cc1Nc1ncc2c(n1)n(C1CCOCC1)c(=O)n2C [AZD7648] (first compound max 1 µM, 7x7, partner max 10 µM), the Bliss excess in the test with COLO-679 (Melanoma) was -0.0363; in [1] it was -0.0061. The “combination Emax” value in test [2] was determined as 0.495; in test [3], 0.268; in test [4], 0.238; in test [5], 0.137; in test [6], 0.317; in test [7] it was 0.112. Moreover, the “combination Emax” value in test [8] worked out at 0.109; in test [9], 0.197; in test [10] it was 0.667; in test [11], 0.209; in [12], 0.739; in the test with SK-N-AS (Neuroblastoma), 0.295. Also, the “combination Emax” value was 0.284 in test [13]; 1 in test [14]; 0.158 in [15]; 0.823 in [16]; 0.658 in test [17]; 0.703 in test [18].

In the case of `CC1(C)CCC(CN2CCN(c3ccc(C(=O)NS(=O)(=O)c4ccc(NCC5CCOCC5)c([N+](=O)[O-])c4)c(Oc4cnc5[nH]ccc5c4)c3)CC2)=C(c2ccc(Cl)cc2)C1` [Venetoclax] + Cn1cnc2c(F)c(Nc3ccc(Br)cc3Cl)c(C(=O)NOCCO)cc21 [Selumetinib] (first compound max 1 µM, 7x7, partner max 3 µM), the Bliss excess in the test with COLO-679 (Melanoma) was -0.0203; in test [1] it was -0.0038. In addition, the “combination Emax” value in test [2] is 0.336; in test [3] it was 0.256; in [4], 0.0906; in [5], 0.184; in test [6] it was 0.253; in test [7], 0.0772. Further, the “combination Emax” value in test [8] turned out to be 0.683; in [9], 0.239; in test [10] it was 0.712; in test [11], 0.219; in [12], 0.971; in the test with SK-N-AS (Neuroblastoma), 0.647. Moreover, the “combination Emax” value was 0.679 in test [13]; 1 in [14]; 0.105 in test [15]; 1 in test [16]; 0.679 in test [17]; 0.632 in [18].

(Values after the supplement of paper PMC11061612.)
